Patent publication US20220402984A1, “LYSIN-ANTIMICROBIAL PEPTIDE (AMP) POLYPEPTIDE CONSTRUCTS, LYSINS, ISOLATED POLYNUCLEOTIDES ENCODING SAME AND USES THEREOF” (priority 2018, published 2022)
Where two headings read alike, the source gives them in different places.

Tests used:
[1] = test system: carbapenem-resistant P. aeruginosa strains; type: cell-based, Pseudomonas aeruginosa
Method: Such resensitization may be determined by combining the present lysins or lysin-AMP polypeptide constructs with an antibiotic in a checkerboard assay as described herein. Antibiotic-resistant bacteria, such as carbapenem-resistant P. aeruginosa, are added to the lysin or lysin-AMP polypeptide construct combination. […] See Clinical and Laboratory Standards Institute (CLSI), CLSI. […] M100 Performance Standards for Antimicrobial Susceptibility Testing; 29th Edition. Clinical and Laboratory Standards Institute, Wayne, Pa., which is herein incorporated by reference in its entirety.
Up to seven carbapenem-resistant isolates were assessed. […] See Clinical and Laboratory Standards Institute (CLSI), CLSI. […] M100 Performance Standards for Antimicrobial Susceptibility Testing; 29th Edition. Clinical and Laboratory Standards Institute, Wayne, Pa.

Staphylococcus aureus = experiment: Daptomycin MIC in […] (positive control); type: cell-based; conditions: S. aureus
Method: As a positive control, the impact of […] ® on daptomycin (DAP) activity against Staphylococcus aureus was also tested.

[2] = test system: P. aeruginosa isolate CFS 1558 (PA20); experiment: Rabbit pulmonary model establishment: inoculum and meropenem static dose; type: in vivo; conditions: for Bacterial Burden, Kidneys / Bacterial Burden, Lung 1 / Bacterial Burden, Lung 2 / Bacterial Burden, Spleen: sacrificed 18-24 hours after last dose
Description: 3×10^9 CFU of the P. aeruginosa isolate was used to challenge the rabbits during the efficacy study described below.

[3] = test system: P. aeruginosa (strain WC-452); experiment: 21-day serial passage resistance assay; type: cell-based, Pseudomonas aeruginosa; conditions: over 18 days
Method: […]. An analysis of bacterial resistance was performed using P. aeruginosa (strain WC-452) over 21 days of serial passage in the presence of a GN-lysin dilution series (in duplicate). […] The well with the highest concentration of GN lysin in which bacterial growth was seen was then used as the inoculum for the next day's passage, and the process was repeated over a 21 day period. The MIC at each daily time-point was recorded, and resistance was measured as a step-wise increase in MIC.

[4] = Meropenem 10 mg/kg, three times a day subcutaneous for two days
[5] = Meropenem 20 mg/kg, three times a day subcutaneous for two days
[6] = Meropenem 30 mg/kg, three times a day subcutaneous for two days
[7] = Meropenem 40 mg/kg, three times a day subcutaneous for two days

C[C@@H](O)[C@H]1C(=O)N2C(C(=O)O)=C(SCCN=CN)C[C@H]12 [Imipenem, imipenem]
Antibiotic MIC Alone ([1]; IPM + GN351 vs. WC-452): 16 (R)
Antibiotic MIC Alone ([1]; IPM + GN370 vs. WC-452): 16 (R)
Antibiotic MIC Alone ([1]; IPM + GN428 vs. WC-452): 16 (R)

daptomycin
fold increase in MIC (Staphylococcus aureus; 0.09% SURVANTA): 32
fold increase in MIC (Staphylococcus aureus; 0.19% SURVANTA): 32
fold increase in MIC (Staphylococcus aureus; 1.56% SURVANTA): 128
fold increase in MIC (Staphylococcus aureus; 3.15% SURVANTA): 128

C[C@@H](O)[C@H]1C(=O)N2C(C(=O)O)=C(S[C@@H]3CN[C@H](C(=O)N(C)C)C3)[C@H](C)[C@H]12 [Meropenem, meropenem]
Antibiotic MIC Alone ([1]; MEM + GN351 vs. WC-452): 16 (R)
Antibiotic MIC Alone ([1]; MEM + GN370 vs. WC-452): 16 (R)
Antibiotic MIC Alone ([1]; MEM + GN428 vs. WC-452): 16 (R)
Bacterial Burden, Kidneys [2, 4]: 4.36 ± 0.43 log10 CFU/g
Bacterial Burden, Lung 1 [2, 4]: 7.39 ± 0.34 log10 CFU/g
Bacterial Burden, Lung 2 [2, 4]: 7.42 ± 0.64 log10 CFU/g
Bacterial Burden, Spleen [2, 4]: 4.01 ± 0.10 log10 CFU/g
Bacterial Burden, Kidneys [2, 5]: 4.51 ± 0.73 log10 CFU/g
Bacterial Burden, Lung 1 [2, 5]: 6.85 ± 1.09 log10 CFU/g
Bacterial Burden, Lung 2 [2, 5]: 6.97 ± 1.19 log10 CFU/g
Bacterial Burden, Spleen [2, 5]: 4.74 ± 0.57 log10 CFU/g
Bacterial Burden, Kidneys ([2]; Meropenem 25 mg/kg): 2.06 ± 0.58 log10 CFU/g
Bacterial Burden, Lung 1 ([2]; Meropenem 25 mg/kg): 4.55 ± 1.65 log10 CFU/g
Bacterial Burden, Lung 2 ([2]; Meropenem 25 mg/kg): 3.73 ± 1.03 log10 CFU/g
Bacterial Burden, Spleen ([2]; Meropenem 25 mg/kg): 2.15 ± 0.78 log10 CFU/g
Bacterial Burden, Kidneys [2, 6]: 2.24 ± 0.64 log10 CFU/g
Bacterial Burden, Lung 1 [2, 6]: 4.83 ± 1.19 log10 CFU/g
Bacterial Burden, Lung 2 [2, 6]: 4.42 ± 1.14 log10 CFU/g
Bacterial Burden, Spleen [2, 6]: 1.97 ± 0.63 log10 CFU/g
Bacterial Burden, Kidneys [2, 7]: 2.34 ± 0.65 log10 CFU/g
Bacterial Burden, Lung 1 [2, 7]: 4.66 ± 0.11 log10 CFU/g
Bacterial Burden, Lung 2 [2, 7]: 2.95 ± 1.19 log10 CFU/g
Bacterial Burden, Spleen [2, 7]: 1.93 ± 0.47 log10 CFU/g
meropenem dosage establishing a static effect ([2]; three times a day, subcutaneous, two days, rabbits): 20 mg/kg

O=C(O)c1cn(C2CC2)c2cc(N3CCNCC3)c(F)cc2c1=O [Ciprofloxacin]
increase in MIC during serial passage [3]: 16 fold
